Assay results reported in PubChem BioAssay (NCI).
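Each compound was tested at five concentrations against cells in 96-well plates for 48 hours. Here, GI50 denotes the concentration required for 50% inhibition of growth. TGI is the concentration that stops growth completely.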

Assays:
Test in all cases: inhibition of tumour cell growth, NCI panel, 48 h; in the data active means GI50 below about 0.43 µM; inactive means the rest
U251 CNS = test system: U251 CNS
SR leukemia = test system: SR leukemia
KM20L2 colon = test system: KM20L2 colon
HCT-116 colon = test system: HCT-116 colon
NCI-H522 lung = test system: NCI-H522 lung
IGROV1 ovarian = test system: IGROV1 ovarian
A549 NSCLC = test system: A549 NSCLC
MOLT-4 leukemia = test system: MOLT-4 leukemia
OVCAR-8 ovarian = test system: OVCAR-8 ovarian
LOX IMVI melanoma = test system: LOX IMVI melanoma
RPMI-8226 leukemia = test system: RPMI-8226 leukemia
OVCAR-3 ovarian = test system: OVCAR-3 ovarian
SNB-75 CNS = test system: SNB-75 CNS
SK-MEL-5 melanoma = test system: SK-MEL-5 melanoma
786-0 renal = test system: 786-0 renal
LXFL 529 NSCLC = test system: LXFL 529 NSCLC
HT29 colon = test system: HT29 colon
KM12 colon = test system: KM12 colon
ACHN renal = test system: ACHN renal
MALME-3M melanoma = test system: MALME-3M melanoma
HCC-2998 colon = test system: HCC-2998 colon
M19-MEL melanoma = test system: M19-MEL melanoma
SK-MEL-28 melanoma = test system: SK-MEL-28 melanoma
DLD-1 colon = test system: DLD-1 colon
SF-295 CNS = test system: SF-295 CNS
NCI-H460 lung = test system: NCI-H460 lung
HOP-92 NSCLC = test system: HOP-92 NSCLC
UO-31 renal = test system: UO-31 renal
SW-620 colon = test system: SW-620 colon
DMS 114 small cell lung = test system: DMS 114 small cell lung
NCI-H23 lung = test system: NCI-H23 lung
SK-OV-3 ovarian = test system: SK-OV-3 ovarian
HCT-15 colon = test system: HCT-15 colon
TK-10 renal = test system: TK-10 renal
SF-539 CNS = test system: SF-539 CNS
COLO 205 colon = test system: COLO 205 colon
HOP-62 NSCLC = test system: HOP-62 NSCLC
CCRF-CEM leukemia = test system: CCRF-CEM leukemia
SNB-19 CNS = test system: SNB-19 CNS
CAKI-1 renal = test system: CAKI-1 renal
SF-268 CNS = test system: SF-268 CNS
K-562 leukemia = test system: K-562 leukemia
HL-60(TB) leukemia = test system: HL-60(TB) leukemia
OVCAR-5 ovarian = test system: OVCAR-5 ovarian
HOP-18 NSCLC = test system: HOP-18 NSCLC
M14 melanoma = test system: M14 melanoma
A498 renal = test system: A498 renal
UACC-62 melanoma = test system: UACC-62 melanoma
SK-MEL-2 melanoma = test system: SK-MEL-2 melanoma
OVCAR-4 ovarian = test system: OVCAR-4 ovarian
SN12C renal = test system: SN12C renal
DMS 273 small cell lung = test system: DMS 273 small cell lung
EKVX NSCLC = test system: EKVX NSCLC
SNB-78 CNS = test system: SNB-78 CNS
UACC-257 melanoma = test system: UACC-257 melanoma

NC1=NS(=O)(=O)Nc2nc(-c3ccc(Cl)cc3)[nH]c21
> 100 µM: TGI (U251 CNS) | TGI (SR leukemia) | TGI (KM20L2 colon) | TGI (HCT-116 colon) | TGI (NCI-H522 lung) | TGI (IGROV1 ovarian) | TGI (A549 NSCLC) | TGI (MOLT-4 leukemia) | TGI (OVCAR-8 ovarian) | TGI (LOX IMVI melanoma) | TGI (RPMI-8226 leukemia) | TGI (OVCAR-3 ovarian) | TGI (SNB-75 CNS) | TGI (SK-MEL-5 melanoma) | TGI (786-0 renal) | TGI (LXFL 529 NSCLC) | TGI (HT29 colon) | TGI (KM12 colon) | TGI (ACHN renal) | TGI (MALME-3M melanoma) | TGI (HCC-2998 colon) | TGI (M19-MEL melanoma) | TGI (SK-MEL-28 melanoma) | TGI (DLD-1 colon) | TGI (SF-295 CNS) | TGI (NCI-H460 lung) | TGI (HOP-92 NSCLC) | TGI (UO-31 renal) | TGI (SW-620 colon) | TGI (DMS 114 small cell lung) | TGI (NCI-H23 lung) | TGI (SK-OV-3 ovarian) | TGI (HCT-15 colon) | TGI (TK-10 renal) | TGI (SF-539 CNS) | TGI (COLO 205 colon) | TGI (HOP-62 NSCLC) | TGI (CCRF-CEM leukemia) | TGI (SNB-19 CNS) | TGI (CAKI-1 renal) | TGI (SF-268 CNS) | TGI (K-562 leukemia) | TGI (HL-60(TB) leukemia) | TGI (OVCAR-5 ovarian) | TGI (HOP-18 NSCLC) | TGI (M14 melanoma) | TGI (A498 renal) | TGI (UACC-62 melanoma) | TGI (SK-MEL-2 melanoma) | TGI (OVCAR-4 ovarian) | TGI (SN12C renal) | TGI (DMS 273 small cell lung)

NCCN.O=C([O-])C(=O)[O-].O=C([O-])C(=O)[O-].[Co+3].[K+]
> 100 µM: TGI (U251 CNS) | TGI (KM20L2 colon) | TGI (HCT-116 colon) | TGI (EKVX NSCLC) | TGI (SNB-78 CNS) | TGI (NCI-H522 lung) | TGI (IGROV1 ovarian) | TGI (A549 NSCLC) | TGI (MOLT-4 leukemia) | TGI (OVCAR-8 ovarian) | TGI (LOX IMVI melanoma) | TGI (RPMI-8226 leukemia) | TGI (OVCAR-3 ovarian) | TGI (SNB-75 CNS) | TGI (UACC-257 melanoma) | TGI (SK-MEL-5 melanoma) | TGI (786-0 renal) | TGI (LXFL 529 NSCLC) | TGI (HT29 colon) | TGI (KM12 colon) | TGI (ACHN renal) | TGI (MALME-3M melanoma) | TGI (HCC-2998 colon) | TGI (M19-MEL melanoma) | TGI (SK-MEL-28 melanoma) | TGI (DLD-1 colon) | TGI (SF-295 CNS) | TGI (NCI-H460 lung) | TGI (HOP-92 NSCLC) | TGI (UO-31 renal) | TGI (SW-620 colon) | TGI (DMS 114 small cell lung) | TGI (NCI-H23 lung) | TGI (SK-OV-3 ovarian) | TGI (HCT-15 colon) | TGI (TK-10 renal) | TGI (SF-539 CNS) | TGI (COLO 205 colon) | TGI (HOP-62 NSCLC) | TGI (CCRF-CEM leukemia) | TGI (SNB-19 CNS) | TGI (SF-268 CNS) | TGI (K-562 leukemia) | TGI (HL-60(TB) leukemia) | TGI (OVCAR-5 ovarian) | TGI (M14 melanoma) | TGI (A498 renal) | TGI (UACC-62 melanoma) | TGI (SK-MEL-2 melanoma) | TGI (OVCAR-4 ovarian) | TGI (SN12C renal)
inactive: GI50 (U251 CNS) > 100 µM | GI50 (KM20L2 colon) > 100 µM | GI50 (HCT-116 colon) > 100 µM | GI50 (EKVX NSCLC) > 100 µM | GI50 (SNB-78 CNS) > 100 µM | GI50 (NCI-H522 lung) 92.4 µM | GI50 (IGROV1 ovarian) > 100 µM | GI50 (A549 NSCLC) > 100 µM | GI50 (MOLT-4 leukemia) > 100 µM | GI50 (OVCAR-8 ovarian) > 100 µM | GI50 (LOX IMVI melanoma) > 100 µM | GI50 (RPMI-8226 leukemia) > 100 µM | GI50 (OVCAR-3 ovarian) > 100 µM | GI50 (SNB-75 CNS) > 100 µM | GI50 (UACC-257 melanoma) > 100 µM | GI50 (SK-MEL-5 melanoma) > 100 µM | GI50 (786-0 renal) > 100 µM | GI50 (LXFL 529 NSCLC) > 100 µM | GI50 (HT29 colon) > 100 µM | GI50 (KM12 colon) > 100 µM | GI50 (ACHN renal) > 100 µM | GI50 (MALME-3M melanoma) > 100 µM | GI50 (HCC-2998 colon) > 100 µM | GI50 (M19-MEL melanoma) > 100 µM | GI50 (SK-MEL-28 melanoma) > 100 µM | GI50 (DLD-1 colon) > 100 µM | GI50 (SF-295 CNS) > 100 µM | GI50 (NCI-H460 lung) > 100 µM | GI50 (HOP-92 NSCLC) > 100 µM | GI50 (UO-31 renal) > 100 µM | GI50 (SW-620 colon) > 100 µM | GI50 (DMS 114 small cell lung) > 100 µM | GI50 (NCI-H23 lung) > 100 µM | GI50 (SK-OV-3 ovarian) > 100 µM | GI50 (HCT-15 colon) > 100 µM | GI50 (TK-10 renal) > 100 µM | GI50 (SF-539 CNS) > 100 µM | GI50 (COLO 205 colon) > 100 µM | GI50 (HOP-62 NSCLC) > 100 µM | GI50 (CCRF-CEM leukemia) > 100 µM | GI50 (SNB-19 CNS) > 100 µM | GI50 (SF-268 CNS) > 100 µM | GI50 (K-562 leukemia) > 100 µM | GI50 (HL-60(TB) leukemia) > 100 µM | GI50 (OVCAR-5 ovarian) > 100 µM | GI50 (M14 melanoma) > 100 µM | GI50 (A498 renal) > 100 µM | GI50 (UACC-62 melanoma) > 100 µM | GI50 (SK-MEL-2 melanoma) > 100 µM | GI50 (OVCAR-4 ovarian) > 100 µM | GI50 (SN12C renal) > 100 µM
